Reference: US8592367B2, “Nodule specific medicago peptides having antimicrobial activity and pharmaceutical compositions containing the same” (priority 2009, dated 2013)

Legend:
Pseudomonas aeruginosa [1] = assay: PI staining, broad spectrum activity; type: cell-based; conditions: 50 μg/ml
Pseudomonas aeruginosa [2] = assay: CFU determination, broad spectrum activity; type: cell-based; conditions: 50 μg/ml, Pseudomonas aeruginosa, untreated 10^7
Clavibacter michigense [3] = assay: CFU determination, broad spectrum activity; type: cell-based; conditions: 50 μg/ml, untreated 10^9
Staphylococcus aureus [4] = assay: CFU determination, broad spectrum activity; type: cell-based; conditions: 50 μg/ml, untreated 10^6
[5] = tested on: Curtobacterium, flaccumfaciens; assay: PI staining, broad spectrum activity; type: cell-based; conditions: 50 μg/ml
Clavibacter michigense [6] = assay: PI staining, broad spectrum activity; type: cell-based; conditions: 50 μg/ml
[7] = tested on: Pseudomonas syringae pv tomato DC3000; assay: CFU determination, broad spectrum activity; type: cell-based; conditions: 50 μg/ml, Pseudomonas syringae pv tomato DC3000, untreated 10^7
[8] = tested on: Sinorhizobium meliloti AK631; assay: PI staining of Sinorhizobium meliloti; conditions: 50 μg/ml, Sinorhizobium meliloti (AK631)
Xanthomonas 2880 [9] = assay: CFU determination, broad spectrum activity; type: cell-based; conditions: 50 μg/ml, Xanthomonas 2880, untreated 10^7
Bacillus subtilis [10] = assay: CFU determination, broad spectrum activity; type: cell-based; conditions: 50 μg/ml, untreated 10^6
Xanthomonas 2880 [11] = assay: PI staining, broad spectrum activity; type: cell-based; conditions: 50 μg/ml
[12] = tested on: Pseudomonas syringae pv tomato DC3000; assay: PI staining, broad spectrum activity; type: cell-based; conditions: 50 μg/ml
[13] = tested on: Arabidopsis (ecotype: wassilewskiya); assay: Arabidopsis germination and seedling growth; conditions: 50 μg/ml=42 μM
Bacillus subtilis [14] = assay: PI staining, broad spectrum activity; type: cell-based; conditions: 50 μg/ml
Staphylococcus aureus [15] = assay: PI staining, broad spectrum activity; type: cell-based; conditions: 50 μg/ml
[16] = tested on: Curtobacterium, flaccumfaciens; assay: CFU determination, broad spectrum activity; type: cell-based; conditions: 50 μg/ml, untreated 10^9
[17] = tested on: Sinorhizobium meliloti AK631; assay: CFU determination of Sinorhizobium meliloti; conditions: 50 μg/ml

Polymyxin B [reference compound]
PI (Pseudomonas aeruginosa [1]): PI: 50%
CFU (Pseudomonas aeruginosa [2]): CFU: 0
CFU (Clavibacter michigense [3]): CFU: 0
CFU (Staphylococcus aureus [4]): CFU: 10^6
PI [5]: PI: 60%
PI (Clavibacter michigense [6]): PI: 60%
CFU [7]: CFU:0
PI [8]: PI: 70%
CFU (Xanthomonas 2880 [9]): CFU: 0
CFU (Bacillus subtilis [10]): CFU: 10^6
PI (Xanthomonas 2880 [11]): PI: 100%
PI [12]: PI: 95%
effect on plant growth [13]: inhibits growth
PI (Bacillus subtilis [14]): PI: 60%
PI (Staphylococcus aureus [15]): PI: 75%
CFU [16]: CFU: 0
CFU % ([17]; 1 hr): 0%
CFU (colony/ml) ([17]; 1 hr): 0 colony/ml
CFU determination (colony formation) ([17]; 3 hours, 2-3×10^6 bacteria, FIG. 2B): none formed colony
CFU ([17]; Sinorhizobium meliloti (AK631), untreated 10^7): CFU: 10^5
